The NIST ThermoML archive (doi:10.1021/je020189p)
Several values for one entry are separate records, joined by “and”; a condition that tells them apart may be missing. Identical values can stand only once.

Settings: Crystal

[I][Tb]([I])[I] [terbium triiodide]
Settings | vapor or sublimation pressure
861 K | 1.91e-05 kPa
871 K | 2.82e-05 kPa
879 K | 3.31e-05 kPa
883 K | 4.27e-05 kPa
884 K | 3.8e-05 kPa and 5.01e-05 kPa
885 K | 5.01e-05 kPa
891 K | 4.79e-05 kPa
892 K | 6.17e-05 kPa
895 K | 7.08e-05 kPa
897 K | 6.61e-05 kPa and 5.75e-05 kPa
900 K | 0.0001 kPa
902 K | 9.12e-05 kPa
903 K | 7.59e-05 kPa
907 K | 0.000126 kPa
909 K | 0.000115 kPa and 9.55e-05 kPa
911 K | 0.000151 kPa
912 K | 0.000132 kPa
913 K | 0.000123 kPa
915 K | 0.000115 kPa
917 K | 0.000174 kPa
920 K | 0.000141 kPa
921 K | 0.0002 kPa
922 K | 0.000186 kPa
926 K | 0.000209 kPa
927 K | 0.000182 kPa and 0.000251 kPa
928 K | 0.000251 kPa
929 K | 0.000229 kPa
930 K | 0.00024 kPa
931 K | 0.000209 kPa
935 K | 0.00024 kPa
936 K | 0.000339 kPa
937 K | 0.000347 kPa
938 K | 0.000316 kPa
939 K | 0.000339 kPa
940 K | 0.000339 kPa and 0.000282 kPa
942 K | 0.000676 kPa
944 K | 0.000447 kPa
945 K | 0.000479 kPa
947 K | 0.000407 kPa and 0.000363 kPa
948 K | 0.000468 kPa and 0.000427 kPa
951 K | 0.00055 kPa
952 K | 0.001 kPa
953 K | 0.000447 kPa and 0.000603 kPa
955 K | 0.000955 kPa
958 K | 0.000661 kPa and 0.000631 kPa
959 K | 0.000692 kPa and 0.000741 kPa
961 K | 0.000776 kPa
963 K | 0.000661 kPa
964 K | 0.00135 kPa
966 K | 0.000891 kPa and 0.000955 kPa
967 K | 0.000912 kPa and 0.000977 kPa
971 K | 0.00105 kPa and 0.00166 kPa and 0.001 kPa
972 K | 0.00191 kPa and 0.0012 kPa
973 K | 0.00117 kPa and 0.00115 kPa and 0.000955 kPa
975 K | 0.00186 kPa
976 K | 0.00135 kPa
977 K | 0.00141 kPa
979 K | 0.00141 kPa
980 K | 0.00148 kPa and 0.00138 kPa
981 K | 0.00123 kPa
983 K | 0.00151 kPa and 0.0024 kPa
985 K | 0.00186 kPa
986 K | 0.00182 kPa and 0.0017 kPa
987 K | 0.00288 kPa and 0.00191 kPa
988 K | 0.00288 kPa and 0.00178 kPa and 0.00155 kPa
990 K | 0.00288 kPa
992 K | 0.00234 kPa
993 K | 0.00219 kPa
994 K | 0.00229 kPa and 0.00182 kPa
995 K | 0.0024 kPa and 0.00389 kPa
998 K | 0.00282 kPa [middle of 4 runs]
1001 K | 0.00282 kPa
1002 K | 0.0024 kPa
1003 K | 0.00288 kPa and 0.00501 kPa
1004 K | 0.00479 kPa and 0.00339 kPa
1005 K | 0.00479 kPa
1006 K | 0.00309 kPa
1008 K | 0.00339 kPa and 0.00389 kPa
1009 K | 0.00282 kPa and 0.0038 kPa
1012 K | 0.00575 kPa and 0.00676 kPa
1013 K | 0.00447 kPa
1015 K | 0.00437 kPa
1016 K | 0.00708 kPa
1017 K | 0.00525 kPa
1018 K | 0.00501 kPa
1019 K | 0.00759 kPa
1020 K | 0.00912 kPa
1021 K | 0.00617 kPa
1022 K | 0.0055 kPa
1026 K | 0.00661 kPa
1027 K | 0.00977 kPa
1028 K | 0.00955 kPa
1029 K | 0.00676 kPa and 0.0117 kPa and 0.00692 kPa
1033 K | 0.00813 kPa
1036 K | 0.0129 kPa
1037 K | 0.00891 kPa and 0.0132 kPa
1039 K | 0.0162 kPa
1043 K | 0.0162 kPa
1044 K | 0.0115 kPa
1049 K | 0.0195 kPa and 0.0204 kPa and 0.0224 kPa
1050 K | 0.0135 kPa
1057 K | 0.0245 kPa
1058 K | 0.0174 kPa
1059 K | 0.0263 kPa and 0.0309 kPa
1064 K | 0.0209 kPa and 0.0309 kPa
1066 K | 0.0316 kPa and 0.038 kPa
1070 K | 0.0263 kPa
1072 K | 0.0389 kPa
1077 K | 0.0324 kPa
1078 K | 0.0457 kPa
